Each block holds one compound with its values, some of them ahead of it. Where a SMILES comes first, the peptide text is derived from it. Where no end group is shown, it is not given here. The star is where a group is joined. BODIPYFLEthylmaleimide = Cc1cc(C)n2c1C=C1C=CC(CCC(=O)NCCN3C(=O)CC(*)C3=O)=[N+]1[B-]2(F)F; Bodipy = not defined here
Tests used:
[1] = molecular target: T1, NEMO oligomers (Flag-NEMO/GFP-NEMO) (Mus musculus, UniProt O88522, A144V/E216G/P360T/S248N); assay: Inhibition of NEMO oligomerization in cells (GFP-NEMO/Flag-NEMO co-transfected 293T cells); format: cell-based, murine; details: 20 μM peptide
T1 construct: expressed in transfected cells; host or cells: 293T (human embryonal kidney), transient co-transfection
Protocol: 293T cells were transiently co-transfected by calcium-phosphate-DNA precipitation method with 2 μg of a plasmid pcDNA3 (Invitrogen) containing the sequence of FLAG-NEMO (pcDNA3-Flag-NEMO of sequence SEQ ID NO: 24) and 0.7 μg of a plasmid pcDNA3 containing the sequence of GFP-NEMO (pcDNA3-GFP-NEMO of sequence SEQ ID NO: 26). Empty vector is added up to a total amount of DNA of 4 μg per 6 cm dish. 24 h after transfection, cells were resuspended and incubated with or without 20 μM of peptides (A-NLM or A-DR NLM) for 7 h at 37° C. Cells were resuspended and washed twice with PBS to remove excess peptides and lysed in 150 μl of lysis buffer containing a protease inhibitor mixture as indicated above (Example 1.D). Lysates were clarified at 15 000×g at 4° C. for 20 min. The amount of proteins in the clarified lysate is determined by the Bradford method with the kit DC Biorad. 100 μg of total proteins were diluted in 200 μl of interaction buffer (50 mM TrisHCl pH 7.5, 1% triton X100, 1 mM DTE, 300 mM NaCl) and incubated 1 h at 4° C. with 40 μl of agarose anti-Flag M2 beads (Sigma). The oligomers Flag-NEMO/GFP-NEMO were pulled down with the anti-Flag M2 beads and washed twice with the interaction buffer. The fluorescence of GFP-NEMO were directly read on the beads with a fluorescence microplate reader SAFAS and the clarified lysates were analysed by Western blotting using anti-Flag, anti-GFP and anti-NDPK-B antibodies (Kraeft et al., 1996; Exp Cell Res; 227:63-69) to normalize the results.
In order to better analyze the molecular mechanism of the inhibition of the NF-κB pathway by DR NLM peptide, the Inventors have developed an assay to probe NEMO oligomerization in cells as described in Example 1.I (see FIG. 5 for an overview of the cell-based assay). For this, two plasmids were used, expressing respectively GFP-NEMO and Flag-NEMO fusion proteins. The plasmids were cotransfected in human 293T cells to overexpress exogenous GFP-NEMO and Flag-NEMO fusion proteins and enforce NEMO oligomerization. The cells were then submitted to detergent lysis and Flag-NEMO proteins were immunopurified using anti-Flag agarose beads and Flag peptide as described in Example 1.I. The fluorescence associated with beads that results from an association of Flag-NEMO with GFP-NEMO subunits within hetero-oligomers allow an estimate of the amount of oligomers present in the cellular extracts.

spCC2-LZ (MOD of NEMO) = molecular target: T2, spCC2-LZ (MOD of NEMO) (Mus musculus, UniProt O88522); assay: Fluorescence anisotropy binding of labelled peptide to spCC2-LZ; details: labelled peptide 10 μM, increasing spCC2-LZ; read-out: dissociation constant for spCC2-LZ
T2 construct: spCC2-LZ, synthetic polypeptide subdomain CC2-LZ; made in house; host or cells: chemical synthesis
Protocol: Anisotropy measurements were performed with a QuantaMaster® fluorometer (PTI), equipped with polarizing filters for excitation and emission, and using a photomultiplier tube in the L-configuration. All experiments were carried out in a microcuvette (60 μl) at 22° C., with excitation and emission wavelengths at 495 and 513 nm. The band pass of the excitation and emission wavelengths was 2 and 4 nm, respectively. Steady-state fluorescence anisotropy, expressed as millianisotropy units was measured as described Agou et al., 2004a. All measurements were carried out in a 20 mM isoionic buffer pH 8 (10 mM acetic acide, 10 mM MES, 20 mM Tris), containing 20 mM KCl. Each data point is the result of 20 recording taken over a 2-min period. To analyse whether DR NLM binds the MOD of NEMO, fluorescent labelled BA-DR NLM (10 μM) was incubated with an increasing concentrations of spCC2-LZ and the complex formation was monitored by fluorescence polarization (P) and results are expressed as anisotropy (A) according to the formula A=2P/(3-P). The concentration of spCC2-LZ was determining by amino acid analysis (Vinolo et al; 2006). Data points were fitted to the binding isotherm equation which gives a dissociation constant of 17 μM.

[2] = Circular dichroism and gel filtration, self-association of peptides; format: physicochemical; details: peptide concentration up to 100 μM; data not shown
Protocol: Far-UV circular dichroism (CD) measurements were performed with an Aviv 215 spectropolarimeter with samples diluted in 10 mM NaPO4 at pH 7.
Then, unlike the LZ peptide, DR NLM peptide as well as NLM peptide are unable to self-associate. Self association of LZ peptide is described by Agou et al., 2004b.

[3] = molecular target: T3, CC2-LZ interaction with cellular polyubiquitinylated proteins (Mus musculus, UniProt O88522); assay: Pull-down of polyubiquitinylated proteins from JM4.5.2 extracts with biotinylated CC2-LZ, anti-ubiquitin Western blot; format: biochemical; details: 20 μM peptide, extracts of TNF-α stimulated JM4.5.2 cells
T3 construct: made in house; host or cells: chemical synthesis (bait); crude extract of JM4.5.2 cells with or without TNFα (partners)
Protocol: 24·10^7 JM4.5.2 cells were stimulated or not with 10 ng/ml of TNFα for 10 minutes at 37° C., washed twice with cold PBS and lysed in 900 μl of lysis buffer containing a protease inhibitor mixture as indicated in Example 1.D. Lysates were clarified at 15 000×g at 4° C. for 30 min. 150 μl of proteins were incubated 2 h at 4° C. with 150 μl of streptavidin magnetic beads (MagPrep®, Novagen) pre-incubated 1 h at 4° C. with 10 μg of biotynilated-CC2-LZ and with or without 20 μM of peptides (BA-NLM or BA-DR NLM). Beads were washed 4 times in buffer A (10 mM Hepes pH 7.5, 150 mM NaCl, 8 mM MgCl2, 10% glycerol, 0.1 mM DDM and 1 mM DTE) and resuspended in 30 μl of laemmli buffer containing 6 M Urea. Samples were analysed by Western blotting using anti-ubiquitin antibodies (Sigma) as well as anti-NDPK-B antibodies for loading controls.
Thus, the Inventors examined whether DR NLM impedes the interaction between NEMO and the K63 polyubiquitin chains. To this end, they developed a pull down assay which uses the a peptide comprising the CC2 and the LZ domains of NEMO as a bait to pull down the polyubiquitinylated proteins as described in Example 1.J and depicted in FIG. 7A. […] After extensive washing of beads, all mono and polyubiquitinylated proteins bound to CC2-LZ were analysed by Western blot using anti-ubiquitin antibody (Sigma).

NF-κB pathway = details: cited from earlier work; for IC50 of inhibition of NF-κB activation: reported in WO2005/027959, Agou et al., 2004b
[4] = molecular target: T4, Lys63-linked polyubiquitin chains (Homo sapiens, UniProt P0CG47); assay: In vitro binding assay by fluorescence polarization to polyubiquitin chains; details: tag-free peptide
T4 construct: the Lys63-linked polyubiquitin chains; purchased Boston Biochem

T1 sequence (O88522 with tags, fused parts or gaps A144V/E216G/S248N/P360T limits assumed): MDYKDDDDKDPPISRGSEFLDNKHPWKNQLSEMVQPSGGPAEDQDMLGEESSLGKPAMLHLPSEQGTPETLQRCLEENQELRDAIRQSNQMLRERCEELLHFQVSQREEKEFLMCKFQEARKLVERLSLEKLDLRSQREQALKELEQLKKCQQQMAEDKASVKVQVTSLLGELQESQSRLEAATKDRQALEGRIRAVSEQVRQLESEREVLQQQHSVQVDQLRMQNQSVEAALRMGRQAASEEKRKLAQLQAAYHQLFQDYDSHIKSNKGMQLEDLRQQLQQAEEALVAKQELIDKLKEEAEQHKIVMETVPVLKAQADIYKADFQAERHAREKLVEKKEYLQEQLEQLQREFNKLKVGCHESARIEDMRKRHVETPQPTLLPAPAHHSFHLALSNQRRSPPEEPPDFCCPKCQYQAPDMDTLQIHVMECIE
T2 sequence (O88522 253-336): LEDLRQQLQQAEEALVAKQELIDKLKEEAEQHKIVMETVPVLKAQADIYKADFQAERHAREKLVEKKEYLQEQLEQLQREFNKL
T3 sequence (O88522 253-336): as above

Kd (spCC2-LZ (MOD of NEMO)): 17 µM
Compound: CC[C@H](C)[C@H](NC(=O)[C@H](CC(=O)O)NC(=O)[C@H](C)NC(=O)[C@H](CCC(N)=O)NC(=O)[C@H](C)NC(=O)[C@H](CCCCN)NC(=O)[C@H](CC(C)C)NC(=O)[C@H](CCCCN)NC(=O)[C@H](CCCCN)NC(=O)[C@H](Cc1c[nH]c2ccccc12)NC(=O)[C@H](CCCCN)NC(=O)[C@H](CCSC)NC(=O)[C@H](CCCNC(=N)N)NC(=O)[C@H](CCCNC(=N)N)NC(=O)[C@H](CC(N)=O)NC(=O)[C@H](CCC(N)=O)NC(=O)[C@H](Cc1ccccc1)NC(=O)[C@H](Cc1c[nH]c2ccccc12)NC(=O)[C@@H](NC(=O)[C@H](CCCCN)NC(=O)[C@@H](NC(=O)[C@H](CCC(N)=O)NC(=O)[C@H](CCCNC(=N)N)NC(=O)[C@H](CSC1CC(=O)N(CCNC(=O)CCC2=[N+]3C(=Cc4c(C)cc(C)n4[B-]3(F)F)C=C2)C1=O)NC(C)=O)[C@@H](C)CC)[C@@H](C)CC)C(=O)N[C@@H](Cc1ccc(O)cc1)C(=O)N[C@@H](CCCCN)C(=O)N[C@@H](C)C(=O)N[C@@H](CCCNC(=N)N)C(=O)N[C@@H](Cc1ccccc1)C(=O)N[C@@H](CCC(N)=O)C(=O)N[C@@H](C)C(=O)N[C@@H](CCC(=O)O)C(=O)N[C@@H](CCCNC(=N)N)C(=O)N[C@@H](Cc1c[nH]cn1)C(=O)N[C@@H](C)C(=O)N[C@@H](CCCNC(=N)N)C(=O)N[C@@H](CCC(=O)O)C(=O)N[C@@H](CCCCN)C(N)=O (stereo partly shown) [BA-DR NLM] (Ac-C(BODIPYFLEthylmaleimide)RQIKIWFQNRRMKWKKLKAQADIYKARFQAERHAREK-NH2; N-terminus and C-terminus assumed)
amount of NEMO oligomers (fluorescent NEMO subunit recovered) [1]: same amount of NEMO oligomers in the absence or in the presence

Kd (spCC2-LZ (MOD of NEMO)): 21 µM
Compound: CC[C@H](C)[C@H](NC(=O)[C@H](CC(=O)O)NC(=O)[C@H](C)NC(=O)[C@H](CCC(N)=O)NC(=O)[C@H](C)NC(=O)[C@H](CCCCN)NC(=O)[C@H](CC(C)C)NC(=O)[C@H](CCCNC(=N)N)NC(=O)[C@H](CCCNC(=N)N)NC(=O)[C@H](CCCNC(=N)N)NC(=O)[C@H](CCCNC(=N)N)NC(=O)[C@H](CCCNC(=N)N)NC(=O)[C@H](CCCNC(=N)N)NC(=O)[C@H](CCCNC(=N)N)NC(=O)[C@H](CSC1CC(=O)N(CCNC(=O)CCC2=[N+]3C(=Cc4c(C)cc(C)n4[B-]3(F)F)C=C2)C1=O)NC(C)=O)C(=O)N[C@@H](Cc1ccc(O)cc1)C(=O)N[C@@H](CCCCN)C(=O)N[C@@H](C)C(=O)N[C@@H](CCCNC(=N)N)C(=O)N[C@@H](Cc1ccccc1)C(=O)N[C@@H](CCC(N)=O)C(=O)N[C@@H](C)C(=O)N[C@@H](CCC(=O)O)C(=O)N[C@@H](CCCNC(=N)N)C(=O)N[C@@H](Cc1c[nH]cn1)C(=O)N[C@@H](C)C(=O)N[C@@H](CCCNC(=N)N)C(=O)N[C@@H](CCC(=O)O)C(=O)N[C@@H](CCCCN)C(N)=O (stereo partly shown) [BR7-DR NLM] (Ac-C(BODIPYFLEthylmaleimide)RRRRRRRLKAQADIYKARFQAERHAREK-NH2; N-terminus and C-terminus assumed)

oligomeric state / self-association [2]: behave as monomer
inhibition of CC2-LZ interaction with polyubiquitinylated proteins [3]: no inhibition was observed
cooperativity index (Hill coefficient) n [4]: 8
Kd ([4]; read-out: dissociation constant for Lys63-linked polyubiquitin chains): 180 µM
Compound: CC[C@H](C)[C@H](NC(=O)[C@H](CC(=O)O)NC(=O)[C@H](C)NC(=O)[C@H](CCC(N)=O)NC(=O)[C@H](C)NC(=O)[C@H](CCCCN)NC(=O)[C@H](CC(C)C)NC(C)=O)C(=O)N[C@@H](Cc1ccc(O)cc1)C(=O)N[C@@H](CCCCN)C(=O)N[C@@H](C)C(=O)N[C@@H](CC(=O)O)C(=O)N[C@@H](Cc1ccccc1)C(=O)N[C@@H](CCC(N)=O)C(=O)N[C@@H](C)C(=O)N[C@@H](CCC(=O)O)C(=O)N[C@@H](CCCNC(=N)N)C(=O)N[C@@H](Cc1c[nH]cn1)C(=O)N[C@@H](C)C(=O)N[C@@H](CCCNC(=N)N)C(=O)N[C@@H](CCC(=O)O)C(=O)N[C@@H](CCCCN)C(N)=O [NLM] (Ac-LKAQADIYKADFQAERHAREK-NH2; N-terminus and C-terminus assumed)
inhibition of NF-κB activation (NF-κB pathway; reported in WO 2005/027959): inhibit NF-κB activation

Compound: BA-LZ L322P/L329P: BA-LZ bearing a double mutation within the coiled-coil interface, SEQ ID NO: 22 (C(Bodipy)RQIKIWFQNRRMKWKKLKAQADIYKADFQAERHAREKLVEKKEYPQEQLEQPQREFNKL; reading uncertain)
amount of NEMO oligomers (fluorescent NEMO subunit recovered) [1]: no dissociation of NEMO oligomers was observed

Compound: BA-LZ: Bodipy-antennapedia tagged LZ peptide, SEQ ID NO: 4 (human 5) (C(Bodipy)RQIKIWFQNRRMKWKKLKAQADIYKADFQAERHAREKLVEKKEYLQEQLEQLQREFNKL; reading uncertain)
amount of NEMO oligomers (fluorescent NEMO subunit recovered) [1]: strong decrease in the amount of fluorescent NEMO subunit

Compound: BA-NLM: NLM fused at N-terminus with antennapedia and conjugated with bodipy (C(Bodipy)RQIKIWFQNRRMKWKKLKAQADIYKADFQAERHAREK; reading uncertain)
amount of NEMO oligomers (fluorescent NEMO subunit recovered) [1]: same amount of NEMO oligomers in the absence or in the presence

Compound: LKAQADIYKADFQAERHAREKLVEKKEYLQEQLEQLQREFNKL [spLZ]
IC50 of inhibition of NF-κB activation (NF-κB pathway): in the μM range

Compound: SKGMQLEDLRQQLQQAEEALVAKQELIDKLKEEAEQHKIV [spCC2]
IC50 of inhibition of NF-κB activation (NF-κB pathway): in the μM range

— patent publication US20100240040A1, “METHOD FOR SCREENING FOR SELECTIVE MODULATOR OF THE NF-KB PATHWAY ACTIVATION” (INSTITUT PASTEUR, priority 2007, published 2010)
